Assay results published in US20240315991A1, “USES OF HNF4 ALPHA AGONISTS” (Sanford Burnham Prebys Medical Discovery Institute, priority 2023, published 2024).

Key:
PPARγ mRNA = assay: RT-PCR of mouse liver, PPARγ; format: in vivo; conditions: HFD+NCT vs HFD, to the level of mice on normal chow, FIG. 3N
Description: (§1) NCT oral administration. Four-week-old male C57BL/6J (JAX cat #000664) mice were purchased from Jackson laboratory and were maintained in a 12 h light/dark cycle throughout the experiment. Prior to the experiments, mice were acclimated for 2 weeks. Six-week-old mice with similar body weights were randomized to a normal diet (NC), a high fat diet (HFD) (Research Diets, cat #D12492 60 kcal % fat) or HFD containing 4000 ppm NCT (HFD+NCT) (Research Diets, 60 kcal % fat+4000 ppm NCT), which was calculated to provide approximately 400 mg/kg/d NCT. HFD chow containing NCT was made with gray dye to distinguish it from regular HFD chow that had green dye. Mice for each treatment group were placed in separate cages. Equal amounts of fresh chow were provided every week to all mice. Body weight gain and food intake were measured every week for 10 weeks. After 10 weeks of chow treatment, mice were sacrificed for analysis. […]
RT-PCR. […] Quantitative real time PCR (RT-PCR) analysis was performed using SYBR® Select Master Mix (Applied Biosystems) and an ABI 7900HT thermal cycler (Applied Biosystems, Thermo Fisher Scientific). Ct values were normalized to 18s rRNA and are expressed as fold change over samples from mice fed NC or cultured human hepatocytes without NCT.

[1] = tested on: blood alanine transaminase (ALT); assay: Liver profile analysis, blood ALT; format: in vivo, mouse; conditions: mice fed on HFD, HFD+NCT vs HFD, FIG. 5I
Description: as §1
Liver profile analysis. […] The levels of multiple analytes, including alkaline phosphatase (ALP), alanine aminotransferase (ALT), gamma glutamyl transferase (GGT), bile acids (BA), total bilirubin (TBIL), albumin (ALB), blood urea nitrogen (BUN), total cholesterol (CHOL) were quantified using a VetScan VS2 Chemistry Analyzer (Abaxis North America, USA).

T6PNE cells = assay: Nitric oxide assay in T6PNE cells treated with palmitate; format: cell-based; conditions: 0.12 mM palmitate plus 15 μM NCT, 3 days, FIG. 5H
Description: T6PNE cells were maintained in RPMI (5.5 mM glucose, Corning) supplemented with 10% fetal bovine serum (FBS, Sigma-Aldrich) and 1% penicillin-streptomycin (pen-strep, Gibco) in 5% CO2 at 37° C. Cells were treated with […] palmitate plus 0 or 15 μM NCT for 3 days in 10 cm plates and harvested with 500 μL PBS. For tissue specimens, snap frozen mouse liver was weighed and homogenized with PBS. NO was measured with the QuantiChrom Nitric Oxide Assay kit (D2NO-100, BioAssay Systems). Homogenized samples (150 μL) were processed for deproteination with 8 μL ZnSO4 and 8 μL NaOH. For normalization, an aliquot of samples from T6PNE cells was taken for BCA assay before deproteination. Samples and standard from kit were incubated with reagents for 20 min at 60° C. and measured OD 540 nm.
150 mM Palmitate (Sigma-Aldrich) was prepared in 50% ethanol and precomplexed with 15% fatty acid-free BSA (Research Organics, Cleveland, OH, USA) in a 37° C. water shaker. BSA-precomplexed palmitate was used as a 12 mM stock solution for all assays with a final concentration of 0.12 mM palmitate in cell culture medium.

Question: Which “PPARγ expression in liver” value (PPARγ mRNA) does the source give for `O=C(/C=C/c1ccc(O)c(O)c1)NCCc1ccc(O)cc1` [NCT, N-trans caffeoyltyramine] here?
Answer: The value was “reduce”.

Question: And the “blood alanine transaminase (ALT) level” value [1]?
Answer: Its value is “decrease”.

Question: What about the “level of NO in cultured cells treated with palmitate” value (T6PNE cells) of the same compound?
Answer: Its value is “decrease”.
